Tests used:
[1] = test system: Japonica rice; assay: Test D paddy water application plant response rating 0 to 100; type: in vivo, Oryza sativa; conditions: approx. 21 days
Text: (§1) Plastic pots were partially filled with silt loam soil. The soil was then saturated with water. […] After planting, water levels were raised to 3 cm above the soil surface and maintained at this level throughout the test. Chemical treatments were formulated in a non-phytotoxic solvent and applied directly to the paddy water. Treated plants and controls were maintained in a greenhouse for approximately 21 days, after which all species were compared to controls and visually evaluated. […] A dash (-) response means no test result.

[2] = test system: barnyardgrass; assay: as above; type: in vivo, Echinochloa crus-galli; conditions: approx. 21 days
Text: as §1

[3] = test system: duck salad; assay: as above; type: in vivo, Heteranthera limosa; conditions: approx. 21 days
Text: as §1

[4] = test system: umbrella sedge; assay: as above; type: in vivo, Cyperus difformis; conditions: approx. 21 days
Text: as §1

[5] = test system: Japonica rice; assay: Test E paddy water application plant response rating 0 to 100; type: in vivo, oryza sativa; conditions: Flood, 0 to 100 scale, approx. 21 days
Text: (§2) Plastic pots were partially filled with silt loam soil. […] At testing, the water level for all plantings was raised to 2 cm above the soil surface. Chemical treatments were formulated in a non-phytotoxic solvent and applied directly to the paddy water. Treated plants and controls were maintained in a greenhouse for approximately 21 days, after which all species were compared to controls and visually evaluated. […] A dash (-) response means no test result.

[6] = test system: barnyardgrass; assay: as above; type: in vivo, Echinochloa crus-galli; conditions: Flood, 0 to 100 scale, approx. 21 days
Text: as §2

[7] = Rate 500 g/ha, 0 to 100 scale (0 no effect, 100 complete control)

| SMILES | Japonica rice plant response rating ([1]; Rate 32 g/ha, 0 to 100 scale) | Japonica rice plant response rating ([1]; Rate 64 g/ha, 0 to 100 scale) | Barnyardgrass 2 plant response rating ([2]; Rate 32 g/ha, 0 to 100 scale) | Barnyardgrass 2 plant response rating ([2]; Rate 64 g/ha, 0 to 100 scale) | Duck salad plant response rating ([3]; Rate 32 g/ha, 0 to 100 scale) | Duck salad plant response rating ([3]; Rate 64 g/ha, 0 to 100 scale) | Umbrella sedge plant response rating ([4]; Rate 32 g/ha, 0 to 100 scale) | Umbrella sedge plant response rating ([4]; Rate 64 g/ha, 0 to 100 scale) | Japonica 1 plant response rating ([5]; Rate 16 g/ha) | Japonica 2 plant response rating ([5]; Rate 16 g/ha) | Japonica 1 plant response rating ([5]; Rate 32 g/ha) | Japonica 2 plant response rating ([5]; Rate 32 g/ha) | Japonica 1 plant response rating ([5]; Rate 64 g/ha) | Japonica 2 plant response rating ([5]; Rate 64 g/ha) | Barnyardgrass 2 plant response rating ([6]; Rate 16 g/ha) | Barnyardgrass 3 plant response rating ([6]; Rate 16 g/ha) | Barnyardgrass 2 plant response rating ([6]; Rate 32 g/ha) | Barnyardgrass 3 plant response rating ([6]; Rate 32 g/ha) | Barnyardgrass 2 plant response rating ([6]; Rate 64 g/ha) | Barnyardgrass 3 plant response rating ([6]; Rate 64 g/ha) | further results |
| --- | --- | --- | --- | --- | --- | --- | --- | --- | --- | --- | --- | --- | --- | --- | --- | --- | --- | --- | --- | --- | --- |
| CC(C)N1C(=O)COc2cc(F)c(-c3nn4c(c3Cl)CCCC4)cc21 [Compound 31] | 25 | 30 | 40 | 60 | 0 | 0 | 65 | 75 |  |  |  |  |  |  |  |  |  |  |  |  | Japonica rice plant response rating ([1]; Rate 4 g/ha, 0 to 100 scale): 10; Japonica rice plant response rating ([1]; Rate 8 g/ha, 0 to 100 scale): 15; Japonica rice plant response rating ([1]; Rate 16 g/ha, 0 to 100 scale): 20; Barnyardgrass 2 plant response rating ([2]; Rate 4 g/ha, 0 to 100 scale): 0; Barnyardgrass 2 plant response rating ([2]; Rate 8 g/ha, 0 to 100 scale): 0; Barnyardgrass 2 plant response rating ([2]; Rate 16 g/ha, 0 to 100 scale): 30; Duck salad plant response rating ([3]; Rate 4 g/ha, 0 to 100 scale): 0; Duck salad plant response rating ([3]; Rate 8 g/ha, 0 to 100 scale): 0; Duck salad plant response rating ([3]; Rate 16 g/ha, 0 to 100 scale): 0; Umbrella sedge plant response rating ([4]; Rate 4 g/ha, 0 to 100 scale): 0; Umbrella sedge plant response rating ([4]; Rate 8 g/ha, 0 to 100 scale): 0; Umbrella sedge plant response rating ([4]; Rate 16 g/ha, 0 to 100 scale): 20 |
| C#CCN1C(=O)COc2cc(F)c(-c3nn4c(c3Cl)CCCC4)cc21 [Compound 34] | 40 | 50 | 30 | 50 | 0 | 60 | 70 | 80 | 75 | 25 | 85 | 30 | 95 | 45 | 85 | 35 | 90 | 45 | 95 | 45 | Japonica rice plant response rating ([1]; Rate 4 g/ha, 0 to 100 scale): 20; Japonica rice plant response rating ([1]; Rate 8 g/ha, 0 to 100 scale): 30; Japonica rice plant response rating ([1]; Rate 16 g/ha, 0 to 100 scale): 55; Barnyardgrass 2 plant response rating ([2]; Rate 4 g/ha, 0 to 100 scale): 0; Barnyardgrass 2 plant response rating ([2]; Rate 8 g/ha, 0 to 100 scale): 10; Barnyardgrass 2 plant response rating ([2]; Rate 16 g/ha, 0 to 100 scale): 20; Duck salad plant response rating ([3]; Rate 4 g/ha, 0 to 100 scale): 0; Duck salad plant response rating ([3]; Rate 8 g/ha, 0 to 100 scale): 0; Duck salad plant response rating ([3]; Rate 16 g/ha, 0 to 100 scale): 0; Umbrella sedge plant response rating ([4]; Rate 4 g/ha, 0 to 100 scale): 0; Umbrella sedge plant response rating ([4]; Rate 8 g/ha, 0 to 100 scale): 20; Umbrella sedge plant response rating ([4]; Rate 16 g/ha, 0 to 100 scale): 50; Japonica 1 plant response rating ([5]; Rate 125 g/ha): 98; Japonica 2 plant response rating ([5]; Rate 125 g/ha): 60; Japonica 1 plant response rating ([5]; Rate 250 g/ha): 100; Japonica 2 plant response rating ([5]; Rate 250 g/ha): 95; Barnyardgrass 2 plant response rating ([6]; Rate 125 g/ha): 100; Barnyardgrass 3 plant response rating ([6]; Rate 125 g/ha): 50; Barnyardgrass 2 plant response rating ([6]; Rate 250 g/ha): 100; Barnyardgrass 3 plant response rating ([6]; Rate 250 g/ha): 95 |
| C=C(Cl)COc1cc(-c2nn3c(c2Cl)CCCC3)c(F)cc1Cl [Compound 40] | 20 | 30 | 100 | 100 | 0 | 45 | 30 | 80 | 10 | 15 | 15 | 20 | 15 | 15 | 25 | 20 | 45 | 35 | 60 | 40 | Japonica rice plant response rating ([1]; Rate 4 g/ha, 0 to 100 scale): 10; Japonica rice plant response rating ([1]; Rate 8 g/ha, 0 to 100 scale): 10; Japonica rice plant response rating ([1]; Rate 16 g/ha, 0 to 100 scale): 15; Barnyardgrass 2 plant response rating ([2]; Rate 4 g/ha, 0 to 100 scale): 20; Barnyardgrass 2 plant response rating ([2]; Rate 8 g/ha, 0 to 100 scale): 65; Barnyardgrass 2 plant response rating ([2]; Rate 16 g/ha, 0 to 100 scale): 70; Duck salad plant response rating ([3]; Rate 4 g/ha, 0 to 100 scale): 0; Duck salad plant response rating ([3]; Rate 8 g/ha, 0 to 100 scale): 0; Duck salad plant response rating ([3]; Rate 16 g/ha, 0 to 100 scale): 0; Umbrella sedge plant response rating ([4]; Rate 4 g/ha, 0 to 100 scale): 0; Umbrella sedge plant response rating ([4]; Rate 8 g/ha, 0 to 100 scale): 0; Umbrella sedge plant response rating ([4]; Rate 16 g/ha, 0 to 100 scale): 15; Japonica 1 plant response rating ([5]; Rate 8 g/ha): 15; Japonica 2 plant response rating ([5]; Rate 8 g/ha): 10; Japonica 1 plant response rating ([5]; Rate 125 g/ha): 20; Japonica 2 plant response rating ([5]; Rate 125 g/ha): 20; Barnyardgrass 2 plant response rating ([6]; Rate 8 g/ha): 15; Barnyardgrass 3 plant response rating ([6]; Rate 8 g/ha): 25; Barnyardgrass 2 plant response rating ([6]; Rate 125 g/ha): 85; Barnyardgrass 3 plant response rating ([6]; Rate 125 g/ha): 50 |
| C=CCN1C(=O)COc2cc(F)c(-c3nn4c(c3Br)CCCC4)cc21 [Compound 41] |  |  |  |  |  |  |  |  | 35 | 20 | 45 | 30 | 65 | 45 | 30 | 25 | 55 | 35 | 65 | 45 | Japonica 1 plant response rating ([5]; Rate 8 g/ha): 25; Japonica 2 plant response rating ([5]; Rate 8 g/ha): 15; Japonica 1 plant response rating ([5]; Rate 125 g/ha): 95; Japonica 2 plant response rating ([5]; Rate 125 g/ha): 55; Barnyardgrass 2 plant response rating ([6]; Rate 8 g/ha): 25; Barnyardgrass 3 plant response rating ([6]; Rate 8 g/ha): 20; Barnyardgrass 2 plant response rating ([6]; Rate 125 g/ha): 98; Barnyardgrass 3 plant response rating ([6]; Rate 125 g/ha): 55 |
| Fc1cc(Cl)ccc1-c1nn2c(c1Br)CCCC2 [Compound 52] | 20 | 20 | 100 | 100 | 0 | 10 | 0 | 0 | 10 | 15 | 20 | 20 | 35 | 25 | 45 | 55 | 100 | 65 | 100 | 100 | Japonica rice plant response rating ([1]; Rate 125 g/ha, 0 to 100 scale): 25; Japonica rice plant response rating ([1]; Rate 250 g/ha, 0 to 100 scale): 25; Japonica rice plant response rating [1, 7]: 30; Barnyardgrass 2 plant response rating ([2]; Rate 125 g/ha, 0 to 100 scale): 100; Barnyardgrass 2 plant response rating ([2]; Rate 250 g/ha, 0 to 100 scale): 100; Barnyardgrass 2 plant response rating [2, 7]: 100; Duck salad plant response rating ([3]; Rate 125 g/ha, 0 to 100 scale): 80; Duck salad plant response rating ([3]; Rate 250 g/ha, 0 to 100 scale): 80; Duck salad plant response rating [3, 7]: 100; Umbrella sedge plant response rating ([4]; Rate 125 g/ha, 0 to 100 scale): 20; Umbrella sedge plant response rating ([4]; Rate 250 g/ha, 0 to 100 scale): 50; Umbrella sedge plant response rating [4, 7]: 80; Japonica 1 plant response rating ([5]; Rate 8 g/ha): 0; Japonica 2 plant response rating ([5]; Rate 8 g/ha): 10; Japonica 1 plant response rating ([5]; Rate 125 g/ha): 55; Japonica 2 plant response rating ([5]; Rate 125 g/ha): 40; Barnyardgrass 2 plant response rating ([6]; Rate 8 g/ha): 40; Barnyardgrass 3 plant response rating ([6]; Rate 8 g/ha): 35; Barnyardgrass 2 plant response rating ([6]; Rate 125 g/ha): 100; Barnyardgrass 3 plant response rating ([6]; Rate 125 g/ha): 100 |
| COCN1C(=O)COc2cc(F)c(-c3nn4c(c3Cl)CCCC4)cc21 [Compound 55] | 25 | 25 | 40 | 100 | 0 | 10 | 80 | 80 | 75 | 20 | 85 | 25 | 98 | 35 | 70 | 40 | 80 | 50 | 100 | 75 | Japonica rice plant response rating ([1]; Rate 4 g/ha, 0 to 100 scale): 10; Japonica rice plant response rating ([1]; Rate 8 g/ha, 0 to 100 scale): 10; Japonica rice plant response rating ([1]; Rate 16 g/ha, 0 to 100 scale): 20; Barnyardgrass 2 plant response rating ([2]; Rate 4 g/ha, 0 to 100 scale): 0; Barnyardgrass 2 plant response rating ([2]; Rate 8 g/ha, 0 to 100 scale): 0; Barnyardgrass 2 plant response rating ([2]; Rate 16 g/ha, 0 to 100 scale): 10; Duck salad plant response rating ([3]; Rate 4 g/ha, 0 to 100 scale): 0; Duck salad plant response rating ([3]; Rate 8 g/ha, 0 to 100 scale): 0; Duck salad plant response rating ([3]; Rate 16 g/ha, 0 to 100 scale): 0; Umbrella sedge plant response rating ([4]; Rate 4 g/ha, 0 to 100 scale): 0; Umbrella sedge plant response rating ([4]; Rate 8 g/ha, 0 to 100 scale): 0; Umbrella sedge plant response rating ([4]; Rate 16 g/ha, 0 to 100 scale): 20; Japonica 1 plant response rating ([5]; Rate 8 g/ha): 25; Japonica 2 plant response rating ([5]; Rate 8 g/ha): 15; Barnyardgrass 2 plant response rating ([6]; Rate 8 g/ha): 15; Barnyardgrass 3 plant response rating ([6]; Rate 8 g/ha): 20 |

Source: US6358885B1, “Substituted phenylheterocyclic herbicides” (Mississippi State University, priority 1992, dated 2002)
